Results taken from US11312692B1, “Polymorphic compounds and uses thereof” (Aldeyra Therapeutics, Inc., priority 2018, dated 2022).
Blank lines part the entries; values can stand above or below the compound they belong to.

Key:
Assay type in all cases: physicochemical
[1] = Aqueous solubility at pH 1, 4.5 and 6.8 (HPLC concentration, XRPD of solids); details: for solubility: thermodynamic from solid, shaken at ambient temperature
Procedure: Approximately 20 mg of each of Compounds 1 and 5-8 was weighed into three 2 mL vials. The appropriate pH buffer was added to achieve pH values of pH 1, 4.5 and 6.8. The pH was measured after buffer addition and the pH adjusted if required back to the appropriate pH. […]

[2] = Dynamic Vapour Sorption (DVS) with post-DVS XRPD; details: for solid form post-DVS by XRPD: after DVS cycles
Procedure: Dynamic Vapour Sorption (DVS): approximately, 10 mg of sample was placed into a mesh vapour sorption balance pan and loaded into a DVS-1 dynamic vapour sorption balance, a DVS Intrinsic dynamic vapour sorption balance or a DVS Advantage dynamic vapour sorption balance by Surface Measurement Systems. The sample was subjected to a ramping profile from 40-90% relative humidity (RH) at 10% increments, maintaining the sample at each step until a stable weight had been achieved (dm/dt 0.004%, minimum step length 30 minutes, maximum step length 500 minutes) at 25° C. After completion of the sorption cycle, the sample was dried using the same procedure to 0% RH and then a second sorption cycle back to 40% RH. Two cycles were performed. The weight change during the sorption/desorption cycles were plotted, allowing for the hygroscopic nature of the sample to be determined. XRPD analysis was then carried out on any solid retained.

[3] = 1 week stability (40° C./75% RH, 80° C., ambient), XRPD and HPLC purity
Procedure: Scale up of both Forms B and C was carried out on the 200 mg scale. Form B was produced from acetone through evaporation. Characterisation of the solid, indicated the material had long lath-like crystals, with the remaining parameters consistent with the previously produced Form B material. Further analysis of the solid by NMR and mass spectrometry identified the material as an imine.
(§1) Form C material was produced through crash cooling to −18° C. in acetonitrile, the material produced through this scale-up was identified as being similar to the previous Form C material.

[4] = Conversion of solid form on grinding (XRPD)
Procedure: as §1

- solubility ([1]; aqueous buffer, pH 4.5 buffer): ≥ 500 mg/mL
- solubility ([1]; aqueous buffer, pH 6.8 buffer): ≥ 500 mg/mL
- solubility ([1]; simulated gastric fluid, pH 1 buffer): ≥ 500 mg/mL
Compound: CC(C)(O)c1cc2oc(-c3ccccc3)nc2cc1N [Compound 1 Form A]

- hygroscopic nature (DVS) ([2]; DVS, 25° C.): slightly hygroscopic
- uptake at 90% RH (DVS) ([2]; DVS, 25° C., 90% RH): 0.6%
- solid form post-DVS by XRPD [2]: consistent with the input material
Compound: CC(C)(O)c1cc2oc(-c3ccccc3)nc2cc1N [Compound A, Form A]

- hygroscopic nature (DVS) ([2]; DVS, 25° C.): slightly hygroscopic
- solid form post-DVS by XRPD [2]: Form A
- drop in purity over the stability period ([3]; 1 week, 40° C./75% RH, versus input Form C purity): 0.1%
- change in purity over the stability period ([3]; 1 week, 80° C.): no change
- change in purity over the stability period ([3]; 1 week, ambient conditions): no change
- solid form after 1 week stability by XRPD ([3]; all three conditions (40° C./75% RH, 80° C., ambient)): converted to Form A
- solid form when ground [4]: mixture of Forms A and C
Compound: CC(C)(O)c1cc2oc(-c3ccccc3)nc2cc1N [Compound A, Form C]

- aqueous solubility compared with other salt forms ([1]; versus Form C of Compound 5, Form A of Compound 6, Form B of Compound 7, Form B of Compound 8, pH 1, 4.5, 6.8 buffers, ca. 20 hours, ambient): far more soluble
Compound: CC(C)(O)c1cc2oc(-c3ccccc3)nc2cc1N.CS(=O)(=O)O [Form A of Compound 1]
